{
  "source": "patent US9982265B2",
  "about": "“Inhibition of Bruton's tyrosine kinase (Btk) in the lung to treat severe lung inflammation and lung injury” (BOARD OF REGENTS, THE UNIVERSITY OF TEXAS SYSTEM, priority 2014, dated 2018)",
  "key": {"[1]": {"system": "mice with LPS/IC induced ALI", "experiment": "Two hit model of LPS/IC induced acute lung injury, Lung Injury Score from pulmonary histopathology", "type": "in vivo", "settings": "Table 5; intranasal treatment after LPS, before ICs; samples 14 h after IC; score 0 to 2; means ± SD, 4-5 animals per group", "experimental": "BALB/c mice (Taconic Germantown, N.Y.) were first injected intraperitoneally (i.p.) with either LPS or saline and 8 h later received anti-KC:KC immune complexes or saline (control) by intranasal (i.n.) route. Anti-KC:KC immune complexes were prepared according to the protocol routinely used in our laboratory (28). Some mice received Btk specific siRNA intranasally. In other experiments the animals were treated i.n. with siRNA specific for Btk (see SEQ ID NOs:18-25) or MMP-9 (Invitrogen), both conjugated (T3™-MAX Conjugation Kit (Bioo Scientific Corporation, Austin, Tex.) to F(ab′)2 fragments of anti-mouse neutrophil antibody Ly-6G1A8). F(ab′)2 fragments alone or conjugated to control siRNA (SEQ ID NO's 26 and 27) (Invitrogen) served as controls of the treatment. Two or fourteen hours after i.n. administration of either immune complexes or saline, the animals were euthanized and samples collected for further evaluation. To study role of neutrophil FcγRIII receptors neutrophils were first depleted by i.p. injection of vinblastine (31) followed by adoptive transfer of cells deficient in FcγRIII receptors prepared as described below. […] Lung dysfunction was assessed by analysis of pulmonary histopathology.\nPulmonary Histopathology: Lungs were fixed in ExCellPlus (AMTS, Lodi, Calif.), embedded in paraffin, and sectioned at 5 μm. […] The images of stained sections were evaluated for the presence of alveolar exudate, infiltration of inflammatory cells, and interstitial thickening. Lung Injury Score (LIS) was assessed as described earlier (28). Most images were assessed at magnification of over 400×. […] At the minimum twenty sections from each group of mice were evaluated and 4 investigators participated in the analysis of 50 or more fields per group. According to recommendation of “An Official American Thoracic Society Workshop Report: Features and Measurements of Experimental Acute Lung Injury in Animals” (Am J Respir Cell Mol Biol 44 725-738, 2011) more than 20 high power fields were independently scored (as described above) and at least 50% of each field was occupied by lung alveoli. […]"}, "thrombomodulin (TM)": {"system": "thrombomodulin (TM)", "experiment": "Thrombomodulin in BAL fluid by Western blot, LPS/IC induced ALI", "type": "in vivo, mice", "settings": "FIG. 6D", "experimental": "Western Blotting: BAL fluids were subjected to SDS PAGE electrophoresis, transferred onto PVDF membrane and further evaluated for the presence of thrombomodulin using anti-mouse TM antibody (M-17; Santa Cruz Biotechnology, Santa Cruz, Calif.). In some experiments cell culture media or cell lysates were analyzed for level of MPO or actin (EMD Millipore, Billerica, Mass. and Santa Cruz Biotechnology, respectively) or phospho-p40 phox (Santa Cruz Biotechnology).\nEndothelial damage in this ALI model was also examined by assessing the release of thrombomodulin (TM), which is a membrane protein expressed on the capillary endothelium (40, 52). A Western Blot analysis of BAL fluid samples was performed (FIG. 6D) from control mice (Saline), mice with LPS/IC induced ALI, and mice treated with siRNA specific for Btk, or MMP-9, or control siRNA. The bar graph in FIG. 6D includes data from 3 experiments. For each repetition a fold over a corresponding control was calculated. Means of all repetitions as well as associated standard deviations were graphed. […] The same was true for mice that received nonspecific control siRNA (p<0.05)."}},
  "data": [
    {"substance": "Cont siRNA: control siRNA #8 (SEQ ID NO:26/27) conjugated to F(ab′)2 fragments of Ly6G1A8 (chain 1 UUCCUCUCCACGCGCAGUACAUUUA; chain 2 AAGGAGAGGUGCGCGUCAUGUAAAU; conjugated to antibody F(ab')2 fragment, attachment not given here; one strand is listed 3' to 5')", "values": [
      {"measurement": "Lung Injury Score: Edema fluid", "setting": "[1]", "result": "1.337 ± 0.170"},
      {"measurement": "Lung Injury Score: Inflammatory infiltration", "setting": "[1]", "result": "1.824 ± 0.141"},
      {"measurement": "Lung Injury Score: Thickening of alveolar septa", "setting": "[1]", "result": "1.607 ± 0.276"},
      {"measurement": "levels of thrombomodulin (TM) in BAL fluid", "setting": "thrombomodulin (TM)", "result": "significantly increased levels"}
    ]}
  ]
}
